≈ marks a conversion by molar mass, not a printed value.
These molecules were tested on Plasmodium falciparum (assay: Antimalarial activity against Plasmodium falciparum). Details: not given.
Format: functional, organism-based

`C=C(COCc1ccc(Br)cc1)[C@@H]1CC[C@]2(C)CC[C@]3(C)[C@H](CC[C@@H]4[C@@]5(C)CC[C@H](OC(=O)CCCCCCC(N)=O)C(C)(C)[C@@H]5CC[C@]43C)[C@@H]12` was tested, and the “fold change (FC)” value was 7.

Same assay, conditions: Plasmodium falciparum

In order of falling IC50:
1. COc1ccc2c(OC)c3c(C)cc(=O)[nH]c3c(OC)c2c1OC  42.9 µM
2. CC(O)c1cncc2c(=O)n3c(cc12)-c1[nH]c2ccc(O)cc2c1CC3 (configuration not stated) [NAUCLEOFFICINE E]  38.3 µM
3. CC1(C)CC[C@]2(C(=O)O)CC[C@]3(C)C(=CC[C@@H]4[C@@]5(C)CC[C@@H](O)C(C)(C)[C@@H]5CC[C@]43C)[C@@H]2C1  28.3 µM
4. COc1c(O)cc2oc3cc(O)c(CC=C(C)C)c(O)c3c(=O)c2c1CC=C(C)C [MANGOSTIN]  17 µM
5. C=C1C(=O)O[C@@H]2/C=C(/C)C3=CC(=O)[C@](C)(O3)[C@H](O)[C@@H](OC(=O)CC(C)C)[C@@H]12 [LOBATIN B]  16.5 µM
6. CCCCCCCCCCCCCCCC1CC(=O)NCCCNCCCCNCCCN1 (configuration not stated) [BUDMUNCHIAMINE L5]  15 µM
7. CCCCCCCCCCCCCC1CC(=O)NCCCNCCCCNCCCN1 (configuration not stated) [BUDMUNCHIAMINE L4]  14 µM
8. C/C=C(/CO[C@H]1O[C@@H](CO)[C@H](O)[C@@H](O)[C@@H]1O)c1cc2n(c(=O)c1CO)CCc1c-2[nH]c2ccccc12 [NAUCLEOFFICINE A]  9.7 µM
9. O=C1c2ccc(O)cc2O[C@H](c2ccc(O)cc2)[C@H]1[C@@H]1C(=O)c2ccc(O)cc2O[C@H]1c1ccc(O)cc1  6.7 µM
10. COc1cc(O)c(C(=O)CCc2ccccc2)c(O)c1[C@H]1C=C(C)CC[C@@H]1C(C)C  5.64 µM
11. COC(=O)/C(=C/C[C@H]1[C@@]2(CC[C@H]3C(C)(C)CCC[C@@]31C)CO2)C1CO1 (some centres not stated)  4.97 µM
12. CC1(C)C=Cc2c(ccc(C(=O)/C=C/c3ccc(O)cc3)c2O)O1  3.36 µM
13. Cc1cc(O)c2c(c1)[C@@H]([C@H]1O[C@H](OC(=O)c3ccccc3)[C@@H](O)[C@@H](O)[C@@H]1O)c1cccc(O)c1C2=O  2.4 µM
14. C=C(C)C(O)Cc1cc(C(=O)/C=C/c2ccc(O)c(CC=C(C)C)c2)c(O)cc1O (configuration not stated) [BARTERICIN A]  2.15 µM
15. COc1cc2c3cc1Oc1c(OC)c(OC)cc4c1[C@H](Cc1ccc(OC)c(c1)-c1cc(ccc1O)C[C@H]3N(C)CC2)N(C)CC4  1.14 µM
16. COc1cc2c3c(c1O)Oc1ccc(cc1)C[C@@H]1c4c(cc(OC)c(O)c4Oc4ccc(cc4)C[C@H]3N(C)CC2)CCN1C [ISOCHONDODENDRINE]  0.892 µM
17. C=C1C(=O)O[C@@H]2C[C@@H](C)/C=C\C(=O)[C@@](C)(O)[C@H](OC(C)=O)[C@@H](OC(=O)CC(C)C)[C@@H]12 [NEUROLENIN B]  0.62 µM
18. COc1ccc2cc1Oc1cc3c(cc1OC)CCN(C)[C@@H]3Cc1ccc(cc1)Oc1c(O)c(OC)cc3c1[C@@H](C2)N(C)CC3  0.353 µM
19. CC1=CC(=O)c2c(O)cccc2C1=O [PLUMBAGIN]  0.27 µM
20. C=C1C(=O)O[C@@H]2C[C@@H](C)[C@@H]3C=CC(=O)[C@@]3(C)[C@@H](O)[C@H]12 [HELENALIN]  0.23 µM
21. NC[C@H](Cl)[C@@H](O)c1c[nH]c(N)n1 [GIRACODAZOLE]  0.077 µM
22. CC[C@H](C)[C@@H]([C@@H](CC(=O)N1CCC[C@H]1[C@H](OC)[C@@H](C)C(=O)N[C@@H](Cc1ccccc1)c1nccs1)OC)N(C)C(=O)[C@@H](NC(=O)[C@H](C(C)C)N(C)C)C(C)C [DOLASTATIN-10]  0.0001 µM

`C=C1C(=O)[C@@]23CC[C@H]4[C@@]5(C)CCC[C@@]4(OC5=O)[C@@]2(C)CC[C@]1(OC)C3` and `C=C1C(=O)[C@@]23CC[C@H]4[C@@]5(C)CCC[C@@]4(OC5=O)[C@@]2(C)CC[C@]1(O)C3` are within 1.5-fold of each other in IC50: 0.54 µg/mL for the first, 0.67 µg/mL for the second.

First: COc1cc2c(=O)c3c(O)c(C/C=C(\C)CCC=C(C)C)c(O)cc3oc2cc1O [COWAXANTHONE]
Second: CC(C)=CCc1c(O)cc2oc3ccc4c(c3c(=O)c2c1O)C=CC(C)(C)O4 [CALOTHWAITESIXANTHONE]
The IC50 of the first is 1.8-fold lower: 1.5 µg/mL for the first, 2.7 µg/mL for the second.

First: C/C1=C\[C@H]2O[C@](C)(CC[C@@H]2[C@@]2(C)CO2)[C@@H](O)CC/C(C)=C/CC1
Second: C[C@@H]1CC[C@H]2C(C)(C)[C@H](O)CC[C@]2(C)[C@@]12Cc1c(O)cc(C=O)c(C=O)c1O2
The IC50 of the first is 18-fold higher: 15 µg/mL for the first, 0.85 µg/mL for the second.

Going from `COc1c2c(cc(O)c1-c1cc(-c3ccc4c(-c5c(O)cc(O)c6c5C[C@@H](C)N[C@@H]6C)c(C)cc(OC)c4c3O)c(O)c3c(OC)cc(C)cc13)C[C@@H](C)N=C2C` [KORUNDAMINE A] to `COc1cc2c(cc1O)CCN(C)[C@H]2Cc1ccc(Oc2c3c(cc(OC)c2OC)-c2c(OC)c(OC)c(O)c4c2[C@@H](C3)N(C)CC4)cc1`, the IC50 falls from 1.1 µg/mL to 0.0242 µg/mL (45-fold).

Going from `CC(=O)O[C@@H]1C(=O)c2c(O)cc(O)cc2O[C@@H]1c1ccc(O)cc1` to `COc1cc2c(cc1O)[C@@H]1C[C@H](C[C@H]3CCCCN31)OC(=O)/C=C\c1ccc(O)c-2c1`, the IC50 falls from 24.3 µg/mL to 2.8 µg/mL (8.7-fold).

Compared with `C=C[C@@]12COC(=O)C(=C)[C@@H]1[C@H]1OC(=O)[C@@H](C)[C@@H]1[C@@H](OC(=O)C(=C)CO)C2`, `C=C[C@@]12COC(=O)C(=C)[C@@H]1[C@@H](O)[C@H](C(=C)C(=O)OC)[C@@H](OC(=O)C(=C)CO)C2` [VERNODALOL] is 4.4-fold higher in IC50: 1.1 µg/mL for the first, 4.8 µg/mL for the second.

Compared with `C=C(C)C(=O)O[C@H]1C[C@H](C)C2=CC(=O)[C@](C)(/C=C3/OC(=O)C(COC(C)=O)=C31)O2`, `C=C1C(=O)O[C@@H]2/C=C(/CO)C3=CC(=O)[C@@](C)(C[C@@H](OC(=O)/C(C)=C\C)[C@@H]12)O3` is 6-fold lower in IC50: 1.8 µg/mL for the first, 0.3 µg/mL for the second.

First: C=CC(C)(C)c1cc2c(O)c3c(c(C(C)(C)C=C)c2oc1=O)OC(C)(C)C=C3 [CLAUSARIN]
Second: C=CC(C)(C)c1c2c(c(OC)c3ccc(=O)oc13)C=CC(C)(C)O2 [DENTATIN]
The IC50 of the first is 85-fold lower: 0.1 µg/mL for the first, 8.5 µg/mL for the second.

First: CC1=CC(=O)[C@@H](O)[C@]2(C)[C@H]3[C@]4(O)OC[C@@]35[C@@H](C[C@@H]12)OC(=O)[C@H](O)[C@@]5(O)[C@H](C)[C@H]4O [PASAKBUMIN C]
Second: C=C1[C@@H](O)[C@@]2(O)OC[C@]34[C@H]2[C@@]2(C)[C@H](O)C(=O)C=C(C)[C@@H]2C[C@H]3OC(=O)[C@H](O)[C@@]14O [EURYCOMANONE]
The IC50 of the first is 2.3-fold higher: 0.0933 µg/mL for the first, 0.04 µg/mL for the second.

Compared with `C/C=C(\C)C(=O)O[C@@H]1[C@H]2C(C)=CC(=O)[C@@H](O)[C@]2(C)[C@H]2[C@]3(O)OC[C@@]24[C@@H]1OC(=O)C[C@H]4[C@@H](C)[C@H]3O`, `CC1=CC(=O)[C@@H](O)[C@]2(C)[C@H]3[C@]4(O)OC[C@@]35[C@@H](C[C@@H]12)OC(=O)[C@H](O)[C@@]5(O)[C@@]1(CO1)[C@H]4O` [PASAKBUMIN B] is 2.7-fold lower in IC50: 0.061 µg/mL for the first, 0.0226 µg/mL for the second.

First: C=C1C2CC[C@@]3(C)[C@H](c4ccoc4)OC(=O)C[C@]13O[C@H]1CC(=O)C(C)(C)[C@H](CC(=O)OC)[C@@]21C
Second: C=C1C2CC[C@@]3(C)[C@H](c4ccoc4)OC(=O)C[C@]13O[C@H]1CC(=O)C(C)(C)[C@H](C(O)C(=O)OC)[C@@]21C (some centres not stated) [6-HYDROXYANGOLENSIC ACID METHYL ESTER]
The IC50 of the first is lower: 5.9 µg/mL for the first, greater than 20 µg/mL for the second.

`C[C@@]12C=C3OC[C@]4(C)C=CC(=O)[C@@](C)([C@@H]34)[C@@]13O[C@H]3C[C@@]1(C)[C@H](C3=CC(O)OC3=O)C[C@H]3O[C@@]321` (mixture of isomers) [TRICHIRUBINE A] and `C[C@@]12C=CC(=O)[C@@]3(C)[C@H]1[C@@H](OC2)[C@@H](OC(=O)c1ccccc1)[C@@]1(C)C2=CC[C@@H](C4=CC(O)OC4=O)[C@]2(C)C[C@@H]2O[C@]231` (mixture of isomers) [TRICHIRUBINE B] are within 1.5-fold of each other in IC50: 0.3 µg/mL for the first, 0.2 µg/mL for the second.

First: O=C1OC(O)C(Cl)=C1Cl (configuration not stated) [MUCOCHLORIC ACID]
Second: O=C1OC(O)C(Br)=C1Br (configuration not stated) [MUCOBROMIC ACID]
The IC50 of the first is 2.6-fold lower: 0.137 µg/mL for the first, 0.359 µg/mL for the second.

Going from `C=C1C([C@@]2(C)C=CC(=O)C(C)(C)[C@@H]2[C@H](OC(C)=O)C(=O)OC)CC[C@@]2(C)[C@H](c3ccoc3)OC(=O)C[C@]12O` (some centres not stated) [DOMESTICULIDE B] to `C=C1C([C@@]2(C)C=CC(=O)C(C)(C)[C@@H]2[C@H](O)C(=O)OC)CC[C@@]2(C)[C@H](c3ccoc3)OC(=O)C[C@]12O` (some centres not stated) [DOMESTICULIDE A], the IC50 rises from 3.2 µg/mL to greater than 20 µg/mL.

First: CC1(C)C(=O)CC[C@]2(C)[C@H]3CC(O)[C@@H]4[C@@]5(C)CC[C@](O)(C(C)(C)O)[C@H]5[C@@H](O[C@H]5OC[C@@H](O)[C@@H](O)[C@@H]5O)C[C@@]4(C)[C@]3(C)CC[C@@H]12 (mixture of isomers) [GLINOSIDE A]
Second: C=C1C(=O)[C@@]23CC[C@H]4[C@@]5(C)CCC[C@@]4(OC5=O)[C@@]2(C)CC[C@@H]1C3
The IC50 of the first is 27-fold higher: 42.3 µg/mL for the first, 1.57 µg/mL for the second.

Going from `COc1cc2c(cc1OC)[C@@H]1C[C@H](C[C@H]3CCCCN31)OC(=O)/C=C\c1ccc(O)c-2c1` [VERTINE] to `COc1cc2c(cc1OC)[C@H](Cc1ccc(Oc3c(O)c(OC)cc4c3C[C@@H]3c5c(c(O)c(OC)c(OC)c5-4)CCN3C)cc1)N(C)CC2`, the IC50 falls from 4.76 µg/mL to 0.0102 µg/mL (470-fold).

First: CC(=O)Oc1cc(C)c(OC(C)=O)c2c1[nH]c1ccccc12
Second: C/C(=C\[C@@H](O)[C@H](O)[C@@H](C)C1=CC[C@@]2(C)C[C@@H]3[C@H](C)CC[C@@H]3/C(C(=O)O)=C\C[C@H]12)C(=O)O [HALOROSELLINIC ACID]
The IC50 of the first is 7.3-fold lower: 1.79 µg/mL for the first, 13 µg/mL for the second.

First: O=C1O[C@@H]2[C@@H](OC(=O)c3cc(O)c(O)c(O)c3-c3c1cc(O)c(O)c3O)[C@H](O)O[C@@H]1COC(=O)c3cc(O)c(O)c(O)c3-c3c(O)c(O)c4oc(=O)c5c(c(O)c(O)c6oc(=O)c3c4c65)-c3c(cc(O)c(O)c3O)C(=O)O[C@@H]21 (racemic) [PUNICALAGIN]
Second: O[C@H]1[C@H]2c3cc4c(cc3CN3CCC(=C[C@@H]1O)[C@H]23)OCO4 [LYCORINE]
The IC50 of the first is 45-fold higher: 27.7 µg/mL for the first, 0.62 µg/mL for the second.

In order of falling EC50:
1. Cc1c(O)cc2c3c1OC(C)(C)CC3c1ccc(O)c(O)c1CC2 (stereo not drawn) [DEMETHYLRACEMOSOL]  2 µg/mL (≈ 6.13 µM)
2. COc1ccc2c(c1O)CCc1cc(O)c(C)c3c1C2CC(C)(C)O3 (stereo not drawn) [RACEMOSOL]  0.9 µg/mL (≈ 2.64 µM)
3. C=C(CO)[C@@]12O[C@@H]1[C@@]1(C)C(=CC2=O)CC[C@@H](O)[C@@H]1C  0.32 µg/mL (≈ 1.21 µM)

— ChEMBL document CHEMBL1177693, “Antimalarials from nature” (Bioorg Med Chem, 2009)
